According to the NIST ThermoML archive (doi:10.1016/j.jct.2017.12.022):
± gives the expanded uncertainty stated by the source.

How the values were obtained:
[1] = Molar enthalpy of transition or fusion; settings: Crystal; DSC
[2] = Crystal; DTA

COC(=O)c1ccc(C(=O)OC)cc1 [dimethyl 1,4-benzenedicarboxylate]
Molar enthalpy of transition or fusion [1]: 8.48 ± 0.191 kcal/mol | Normal melting temperature [2]: 140.8 ± 1 °C
